Experimental data published in ChEMBL document CHEMBL4819022, “Discovery of JNJ-63576253: A Clinical Stage Androgen Receptor Antagonist for F877L Mutant and Wild-Type Castration-Resistant Prostate Cancer (mCRPC)” (J Med Chem, 2021).
Active and inactive are the calls of the source. The rule behind the calls is not given here.

Tests used:
[1] = system: T1, Androgen receptor (Homo sapiens), P10275 [F877L]; assay: Antagonist activity at AR F877L mutant (unknown origin) transfected in human LNCAP cells cotransfected with ARE-LUC incubated for 20 to 24 hrs in presence of AR agonist R1881 by steady-glo luciferase reporter gene assay relative to control; type: cell-based; conditions: filed as antagonist, time 20-24 hrs
T1 sequence (whole entry): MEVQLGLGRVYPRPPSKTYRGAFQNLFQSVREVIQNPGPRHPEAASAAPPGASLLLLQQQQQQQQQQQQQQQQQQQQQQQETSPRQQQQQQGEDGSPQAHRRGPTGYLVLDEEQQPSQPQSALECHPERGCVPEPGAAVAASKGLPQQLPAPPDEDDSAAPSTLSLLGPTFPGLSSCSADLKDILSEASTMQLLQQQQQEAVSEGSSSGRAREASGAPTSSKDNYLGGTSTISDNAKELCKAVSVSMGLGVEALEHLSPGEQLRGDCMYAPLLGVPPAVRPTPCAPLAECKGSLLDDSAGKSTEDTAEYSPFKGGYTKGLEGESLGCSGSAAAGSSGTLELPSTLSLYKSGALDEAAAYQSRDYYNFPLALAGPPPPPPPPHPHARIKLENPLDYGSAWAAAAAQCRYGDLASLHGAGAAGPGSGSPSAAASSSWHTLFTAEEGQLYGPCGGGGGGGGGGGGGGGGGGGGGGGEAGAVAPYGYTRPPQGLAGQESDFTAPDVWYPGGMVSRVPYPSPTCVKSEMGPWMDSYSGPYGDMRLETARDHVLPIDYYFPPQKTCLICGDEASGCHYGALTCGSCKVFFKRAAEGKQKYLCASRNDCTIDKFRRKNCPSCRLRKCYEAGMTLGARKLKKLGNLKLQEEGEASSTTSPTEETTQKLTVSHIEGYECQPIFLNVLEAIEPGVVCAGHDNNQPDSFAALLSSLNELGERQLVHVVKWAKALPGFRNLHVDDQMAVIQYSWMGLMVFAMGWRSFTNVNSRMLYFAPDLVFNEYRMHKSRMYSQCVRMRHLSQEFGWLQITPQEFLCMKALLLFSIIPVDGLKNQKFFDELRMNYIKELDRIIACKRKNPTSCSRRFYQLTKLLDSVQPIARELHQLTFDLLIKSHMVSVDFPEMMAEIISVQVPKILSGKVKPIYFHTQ

[2] = Drug metabolism in dog liver microsomes assessed as unchanged parent compound at 10 uM incubated for 60 mins in presence of glutathione by LC-MS/MS analysis; type: ADME, Canis lupus familiaris, Microsome; conditions: read-out: Drug metabolism
[3] = Drug metabolism in dog liver microsomes assessed as unchanged parent compound at 10 uM incubated for 60 mins in presence of glutathione and NADPH by LC-MS/MS analysis; type: ADME, Canis lupus familiaris, Microsome; conditions: read-out: Drug metabolism
[4] = Cmax in CD1 mouse at 10 mg/kg, po; type: ADME, organism-based; parameters: route oral, dose 10 mg/kg; conditions: in vivo
[5] = Oral bioavailability in CD1 mouse at 10 mg/kg; type: ADME, organism-based; conditions: CD1, mouse, in vivo
[6] = Apparent passive permeability from apical to basolateral side in MDCK-MDR1 cells in presence P-gp inhibitor; type: ADME, cell-based, Canis lupus familiaris; conditions: dog, MDCK-MDR1, with P-gp inhibitor (name and concentration not stated)
[7] = Clearance in CD1 mouse at 2 mg/kg, iv; type: ADME, organism-based; conditions: in vivo
[8] = Volume of distribution at steady state in CD1 mouse at 2 mg/kg, iv; type: ADME, organism-based; conditions: in vivo, read-out: Vdss
[9] = system: liver microsomes (Homo sapiens); assay: Half life in human liver microsomes
[10] = Half life in CD1 mouse at 2 mg/kg, iv; type: ADME, organism-based; conditions: in vivo
VCaP = assay: Antiproliferative activity against human VCaP cells expressing wild-type androgen receptor assessed as reduction in cell viability incubated for 5 days in presence of R1881 by CellTiter-glo assay; type: functional, cell-based; conditions: 120 h
[11] = AUC(0 to last) in CD1 mouse at 10 mg/kg, po; type: ADME, organism-based; parameters: route oral, time 0 - last, dose 10 mg/kg; conditions: CD1, mouse, in vivo
[12] = target: T2, Androgen receptor (Rattus norvegicus) (UniProt P15207); conditions: Sprague-Dawley, dose 30.0 mg/kg, time 10.0 day
T2 sequence (whole entry): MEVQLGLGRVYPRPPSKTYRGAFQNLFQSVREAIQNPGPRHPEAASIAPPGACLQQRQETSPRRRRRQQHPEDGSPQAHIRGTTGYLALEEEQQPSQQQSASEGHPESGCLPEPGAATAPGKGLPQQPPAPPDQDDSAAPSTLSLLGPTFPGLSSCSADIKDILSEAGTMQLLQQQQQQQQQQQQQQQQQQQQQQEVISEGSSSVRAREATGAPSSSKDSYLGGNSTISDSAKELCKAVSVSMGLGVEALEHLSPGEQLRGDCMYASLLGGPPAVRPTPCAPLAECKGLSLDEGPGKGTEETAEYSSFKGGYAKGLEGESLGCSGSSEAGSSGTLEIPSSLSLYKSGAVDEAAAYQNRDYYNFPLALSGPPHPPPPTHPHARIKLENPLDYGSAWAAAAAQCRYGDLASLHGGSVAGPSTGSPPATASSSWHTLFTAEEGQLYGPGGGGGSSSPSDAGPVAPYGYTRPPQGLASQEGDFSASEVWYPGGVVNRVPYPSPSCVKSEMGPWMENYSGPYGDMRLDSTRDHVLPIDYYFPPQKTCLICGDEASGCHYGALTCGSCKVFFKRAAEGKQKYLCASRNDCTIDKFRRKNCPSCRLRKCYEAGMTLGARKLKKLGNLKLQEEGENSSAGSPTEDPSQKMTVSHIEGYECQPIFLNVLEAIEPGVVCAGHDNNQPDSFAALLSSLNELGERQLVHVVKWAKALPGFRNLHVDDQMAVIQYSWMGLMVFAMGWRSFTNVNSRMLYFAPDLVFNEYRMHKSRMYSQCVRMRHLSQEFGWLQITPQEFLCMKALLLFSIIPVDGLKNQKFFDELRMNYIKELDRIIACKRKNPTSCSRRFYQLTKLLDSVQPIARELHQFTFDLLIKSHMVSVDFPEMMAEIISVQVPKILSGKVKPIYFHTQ

[13] = target: T2, Androgen receptor (Rattus norvegicus); conditions: Sprague-Dawley, dose 30.0 mg/kg, time 10.0 day; remark: listed apart in the source
[14] = target: T2, Androgen receptor (Rattus norvegicus); conditions: Sprague-Dawley, dose 30.0 mg/kg, time 10.0 day; remark: listed apart in the source
[15] = target: T2, Androgen receptor (Rattus norvegicus); conditions: Sprague-Dawley, dose 30.0 mg/kg, time 10.0 day; remark: listed apart in the source
[16] = target: T2, Androgen receptor (Rattus norvegicus); conditions: Sprague-Dawley, dose 30.0 mg/kg, time 10.0 day; remark: listed apart in the source
Androgen receptor = Androgen receptor (Homo sapiens, UniProt P10275, F877L)
LNCaP = assay: Antitumor activity against human LNCaP cells harboring AR F877L mutant xenografted in SCID mouse assessed as tumor growth inhibition at 30 mg/kg, po QD administered via gavage for 28 days and measured twice weekly relative to control; type: functional; conditions: time 28 day, read-out: TGI
[17] = Drug concentration in SCID mouse plasma xenografted with human LNCaP cells harboring AR F877L mutant at 30 mg/kg, po QD administered via gavage for 28 days; type: ADME, organism-based; conditions: time 28 day, read-out: Ct

Row | Compound | Imax [1] [%] | remaining at 1 h, 10 µM [2] [%] | remaining at 1 h, 10 µM [3] [%] | Cmax [4] [nM] | bioavailability [5] [%] | Papp A→B [6] [×10⁻⁶ cm/s] | clearance [7] [mL/min/kg] | Vd [8] [L/kg] | half-life [9] [h] | half-life [10] [h] | IC50 (VCaP) [nM] | AUC(0-t) [11] [ng·h/mL] | inhibition [12] | inhibition [13] | inhibition [14] | inhibition [15] | inhibition [16] | EC50 (Androgen receptor) [nM] | concentration at […] [17] [ng/mL] | inhibition in vivo at 30 mg/kg (LNCaP) [%]
1 | Cc1cc(N2C(=O)C3(CCC3)N(c3ccc(OC4CCNCC4)nc3)C2=S)cnc1C#N | > 90 |  |  | 1880 | 92 | 3.38 | 19.4 | 4.35 | > 3 | 3 | 264 | 7800 |  |  |  |  |  |  |  | 
2 | CN1CCC(Oc2ncc(N3C(=S)N(c4cnc(C#N)c(C(F)(F)F)c4)C(=O)C34CCC4)cn2)CC1 | > 90 |  |  |  |  |  |  |  |  |  |  |  |  |  |  |  |  |  |  | 
3 | CNC(=O)c1ccc(N2C(=S)N(c3ccc(C#N)c(C(F)(F)F)c3)C(=O)C2(C)C)cc1F [ENZALUTAMIDE] |  |  |  |  |  |  |  |  |  |  | 149 |  | Active | Active | Active | Active | Active |  |  | 
4 | N#Cc1ncc(N2C(=O)C3(CCC3)N(c3ccc(O)cc3)C2=S)cc1C(F)(F)F |  |  | 91.9 |  |  |  |  |  |  |  |  |  |  |  |  |  |  |  |  | 
5 | N#Cc1ncc(N2C(=O)C3(CCC3)N(c3ccc(CN4CCNCC4)cc3)C2=S)cc1C(F)(F)F | > 90 |  |  | 840 | 97 | 6.31 | 18.2 | 16.8 | > 3 | 12.1 | 2780 | 8700 | inactive | inactive | inactive | inactive | inactive |  |  | 
6 | CN1CCC(Oc2ccc(N3C(=S)N(c4cnc(C#N)c(C(F)(F)F)c4)C(=O)C34CCC4)cn2)CC1 | > 90 |  |  | 1300 | 56 | 16.2 | 8.14 | 7.69 | 2.88 | 12.5 | 394 | 10900 |  |  |  |  |  |  |  | 

More lines, main results first:

Row | Imax [1] [%] | remaining at 1 h, 10 µM [2] [%] | remaining at 1 h, 10 µM [3] [%] | Cmax [4] [nM] | bioavailability [5] [%] | Papp A→B [6] [×10⁻⁶ cm/s] | clearance [7] [mL/min/kg] | Vd [8] [L/kg] | half-life [9] [h] | half-life [10] [h] | IC50 (VCaP) [nM] | AUC(0-t) [11] [ng·h/mL] | inhibition [12] | inhibition [13] | inhibition [14] | inhibition [15] | inhibition [16] | EC50 (Androgen receptor) [nM] | concentration at […] [17] [ng/mL] | Compound | inhibition in vivo at 30 mg/kg (LNCaP) [%]
7 | > 90 | 100 | 100 |  |  |  |  |  |  |  |  |  |  |  |  |  |  |  |  | N#Cc1ncc(N2C(=O)C3(CCC3)N(c3ccc(O)nc3)C2=S)cc1C(F)(F)F | 
8 | 67 |  |  |  |  |  |  |  |  |  |  |  |  |  |  |  |  |  |  | N#Cc1ncc(N2C(=O)C3(CCC3)N(c3cnc(OC4CCNCC4)nc3)C2=S)cc1C(F)(F)F | 
9 | > 90 |  |  | 2800 | 87 |  | 6.9 | 3.7 | 1.9 | 7.8 | 263 | 20100 | Active | Active | Active | Active | Active | 649 |  | COc1cc(N2C(=O)C3(CCC3)N(c3ccc(OC4CCN(C)CC4)cc3)C2=S)cnc1C#N | 
10 | > 90 |  |  | 1880 | 118 | 11.5 | 25.4 | 6.92 | > 3 | 4.1 | 250 | 6000 | Active | Active | Active | Active | Active |  |  | N#Cc1ncc(N2C(=O)C3(CCC3)N(c3ccc(OC4CCNCC4)nc3)C2=S)cc1Cl | 
11 | > 90 |  |  | 780 | 50 | 12.2 | 26.7 | 8.47 | > 3 | 3.7 | 503 | 4600 | Active | Active | Active | Active | Active | 45 |  | N#Cc1ncc(N2C(=O)C3(CCC3)N(c3ccc(OC4CCNCC4)cc3)C2=S)cc1Cl | 
12 | > 90 | 100 | 98.8 | 660 | 45 | 5.62 | 15 | 6.11 | > 3 | 5.99 | 265 | 4900 | Active | Active | Active | Active | Active |  | 1750 | N#Cc1ncc(N2C(=O)C3(CCC3)N(c3ccc(OC4CCNCC4)nc3)C2=S)cc1C(F)(F)F [TRC-253] | 87
